Data: patent US12440479B2, “Prevention or treatment of chronic organ injury” (GEORG-AUGUST-UNIVERSITAET GOETTINGEN, STIFTUNG …, priority 2018, dated 2025)

Legend:
ARNT proximal promoter = experiment: ChIP PCR after Yy1 pull-down; type: cell-based, mouse; details: cultured TECs, FK506 added to culture media
Description: DNA and protein interaction was performed with the OneDay ChIP Kit (Diagenode, Seraing, Belgium) according to the manufacturer's instructions. 2×10^7 MCT cells have been used for each ChIP reaction. Cell lysates were sonicated using an ultrasonic processor S-4000 (Misonix, Farmingdale, USA). Immunoprecipitation was performed with a ChIP grade antibody against Yy1 (ab12132, Abcam Biochemicals, Cambridge, UK) and Arnt (3718, Cell Signaling, Danvers, USA). Enriched DNA was analyzed by qRT-PCR with EpiTect ChIP qPCR primers for genomic Arnt (Qiagen, Hilden, Germany), oligonucleotide sequences for genomic Alk3 are listed in Table 10.

ARNT dimers = experiment: Native gel analysis of total kidney lysates after Arnt pulldown (UUO mice); type: in vivo; details: UUO mice treated with FK506; without interaction with HIF1α, HIF2α or AHR
Source text: Tissue and cells were homogenized in NP40 lysis buffer (Life technologies, Carlsbad, USA) supplemented with protease inhibitor cocktail (Roche, Basel, Switzerland). After sonication, protein samples were resolved by a 4-12% Bis-Tris polyacrylamide gel electrophoresis system (Novex, Carlsbad, USA) and transferred onto a nitrocellulose membrane (GE Healthcare, Freiburg, Deutschland), followed by a blocking step with 5% dry milk or 5% bovine serum albumin (BSA) in TBS-T (TBS pH 7.2, 0.1% Tween-20) to prevent unspecific bindings. After incubation with respective primary antibodies against ALK3 (ABD51, Merck Millipore, Billerica, USA) and ALK6 (ABD50, Merck Millipore, Billerica, USA), pSmad1/5/8 (13820, Cell Signaling, Danvers, USA), Arnt (3718, Cell Signaling, Danvers, USA), Fkbp12 (ab2918, Abcam Biochemicals, Cambridge, UK), NFATc1 (sc-7294, Santa Cruz Biotechnology, Dallas, USA), NFATc2 (sc-7295, Santa Cruz Biotechnology, Dallas, USA), β-actin (A5316, Sigma, St. Louis, USA) and Gapdh (5G4, HyTest, Turku, Finland), secondary HRP-conjugated antibodies were used (Dako, Glostrup, Denmark). Luminescence was detected by using chemiluminescent substrate (Cell Signaling, Danvers, USA) on a ChemiDoc XRS system (Bio-Rad, Hercules, USA). Native protein samples were prepared with Native PAGE Sample Prep kit (Novex, Carlsbad, USA) according to the manufacturer's instruction. […]

[1] = system: chronically injured hearts; experiment: Angiotensin II (AT II)-induced cardiac hypertrophy and fibrosis; type: in vivo, mice; details: heart, 10 mg/kg subcutaneously per day starting one day prior
Description: Eight to twelve weeks old C57BL/6 mice were anesthetized with isoflurane inhalation (2-3%), analgesia was performed by subcutaneous injection of 0.1 mg/kg body weight Buprenorphine per day. Osmotic minipumps (Alzet, Cupertino, USA) were loaded with AT II to continuously deliver 1.44 μg/kg body weight per day and implanted subcutaneously (123). Mice were sacrificed 14 days after implantation for further analyses. Mice were injected subcutaneously with 10 mg/kg body weight per day GPI-1046 (Santa Cruz Biotechnology, Dallas, USA) in DMSO once daily starting one day prior of surgery, control mice received equivalent volume of vehicle DMSO. […] For morphometric analysis of interstitial fibrosis, fibrotic areas were assessed by using cellSens (Olympus, Tokyo, Japan) software. Ten visual fields were selected randomly for each MTS stained section at 200× magnification and the relative interstitial fibrotic area was evaluated by using a 10 mm2 graticule. Tubular damage was analysed after PAS stain and graded according to a semi-quantitative score of 0 to 3 (0: normal, 1: mild, 2: moderate, 3: severe) at 400× magnification in a total number of 100 tubules per section (158). […] Cardiomyocyte diameters were determined from 100 random fibers in PAS-stained heart sections using cellSens (Olympus, Tokyo, Japan) software.

Compound	YY1 binding to the ARNT proximal promoter (ARNT proximal promoter)	formation of ARNT dimers in total kidney lysates (ARNT dimers)	ALK3-dependent canonical BMP signaling responses [1]	protection from fibrogenesis [1]
C=CC[C@@H]1/C=C(\C)C[C@H](C)C[C@H](OC)[C@H]2O[C@@](O)(C(=O)C(=O)N3CCCC[C@H]3C(=O)O[C@H](/C(C)=C/[C@@H]3CC[C@@H](O)[C@H](OC)C3)[C@H](C)[C@@H](O)CC1=O)[C@H](C)C[C@@H]2OC [FK506, tacrolimus]	reduced	increased formation of ARNT dimers		
CCC(C)(C)C(=O)C(=O)N1CCC[C@H]1C(=O)OCCCc1cccnc1 [GPI-1046, 3-(3-pyridyl)-1-propyl-(2S)-1-(3,3-dimethyl-1,2-dioxopentyl)-2-pyrrolidinedine carboxylate]			equally effective	equally effective
